Reference: patent US6326476A, “Heparin derivatives and process for the preparation thereof” (Pharmacia AB, priority 1991, dated 2001)

Tested on: Sprague-Dawley rats
Details: rat, in vivo, 2 mg/kg
Protocol: Res 15 191-197 was performed in Sprague-Dawley rats weighing 200-250 g anaesthetized with Mebumal/Stesolid (Dumex A/S Copenhagen). The template device (Simplate, General Diagnostics, Durham, N.C.) was applied longitudinally to the dorsal part of the tail, taking care to avoid large veins. Blood from the wound was then carefully removed every 30 sec, with blotting paper. A minimum of six rats were used for each compound and dose. Bleeding times were measured from the moment the tail was incised until the first arrest of bleeding. The bleeding time was recorded with an accuracy of 30 sec. Two bleeding times were always determined in each rat, viz. 10 min before and 10 min after drug administration, and the results are expressed as the prolongation of bleeding time.

Prolongation of bleeding time: 12.8 min
Substance: heparin [Standard heparin]
